From patent US20100267561A1, “HERBICIDAL PYRIDAZINONE DERIVATIVES” (priority 2007, published 2010)

Columns and labels:
Assay type in all cases: in vivo
[1] = tested on: barnyardgrass (Echinochloa crus-galli); assay: Test B flooded paddy test plant response
How it was run: (§1)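 Paddy-water application to 2-leaf plants in pots held under 3 cm of flooding; response is a 0–100 visual control rating against controls after 13 to 15 days, and a dash marks a missing result.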

[2] = tested on: rice (Oryza sativa); assay: Test B flooded paddy test plant response
How it was run: as §1

[3] = tested on: Italian ryegrass (Lolium multiflorum); assay: Test B pre-/postemergence plant response
How it was run: (§2)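 Visual scoring from 0 (no effect) to 100 (complete control) against untreated controls was done 13 to 15 days after greenhouse treatment. Chemicals were formulated in a surfactant-containing non-phytotoxic solvent and applied to soil preemergence or to 1- to 4-leaf (2-18 cm) plants postemergence.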

[4] = tested on: blackgrass (Alopecurus myosuroides); assay: Test B pre-/postemergence plant response; details: for Blackgrass plant response rating: preemergence, 0-100 scale
How it was run: as §2

[5] = tested on: morningglory (Ipomoea coccinea); assay: Test B pre-/postemergence plant response
How it was run: as §2

[6] = tested on: wild oat (Avena fatua); assay: Test B pre-/postemergence plant response
How it was run: as §2

[7] = tested on: large crabgrass (Digitaria sanguinalis); assay: Test B pre-/postemergence plant response
How it was run: as §2

[8] = tested on: eastern black (E.B.) nightshade (Solanum ptycanthum); assay: Test B pre-/postemergence plant response; details: Preemergence
How it was run: as §2

[9] = tested on: pigweed (Amaranthus retroflexus); assay: Test B pre-/postemergence plant response
How it was run: as §2

[10] = tested on: downy bromegrass (Bromus tectorum); assay: Test B pre-/postemergence plant response
How it was run: as §2

[11] = tested on: johnsongrass (Sorghum halepense); assay: Test B pre-/postemergence plant response
How it was run: as §2

[12] = tested on: common (oilseed) sunflower (Helianthus annuus); assay: Test B pre-/postemergence plant response; details: Preemergence
How it was run: as §2

[13] = tested on: common ragweed (Ambrosia elation); assay: Test B pre-/postemergence plant response
How it was run: as §2

[14] = tested on: catchweed bedstraw (Galium aparine); assay: Test B pre-/postemergence plant response; details: Preemergence
How it was run: as §2

[15] = Flood (flooded paddy test), 62 g ai/ha, scale 0 to 100, 0 no effect, 100 complete control
[16] = Flood (flooded paddy test), 125 g ai/ha, scale 0 to 100, 0 no effect, 100 complete control
[17] = Flood (flooded paddy test), 250 g ai/ha, scale 0 to 100, 0 no effect, 100 complete control
[18] = Flood, 31 g ai/ha, scale 0 to 100
[19] = Preemergence, 31 g ai/ha, 0 to 100 scale, 0 no effect, 100 complete control
[20] = Preemergence, 62 g ai/ha, scale 0 to 100
[21] = Preemergence, 125 g ai/ha, scale 0 to 100
[22] = Preemergence, 250 g ai/ha, scale 0 to 100
[23] = 31 g ai/ha, 0 to 100 scale, 0 no effect, 100 complete control
[24] = Postemergence, 31 g ai/ha, scale 0 to 100, 0 no effect, 100 complete control
[25] = Postemergence, 62 g ai/ha, scale 0 to 100
[26] = Postemergence, 125 g ai/ha, scale 0 to 100
[27] = Postemergence, 250 g ai/ha, scale 0 to 100

Cc1cc(-c2ccc(C(F)(F)F)cc2)nn1-c1c(OC(=O)C(C)(C)C)cnn(C)c1=O [Compound 2]
Plant response rating, Barnyardgrass [1, 15]: 0 | Plant response rating, Barnyardgrass [1, 16]: 20 | Plant response rating, Barnyardgrass [1, 17]: 45 | Plant response rating, Barnyardgrass [1, 18]: 0 | Plant response rating, Rice [2, 15]: 15 | Plant response rating, Rice [2, 16]: 15 | Plant response rating, Rice [2, 17]: 45 | Plant response rating, Rice [2, 18]: 0 | Plant response rating, Ryegrass, Italian [3, 19]: 75 | Plant response rating, Ryegrass, Italian [3, 20]: 100 | Plant response rating, Ryegrass, Italian [3, 21]: 100 | Plant response rating, Ryegrass, Italian [3, 22]: 100 | Blackgrass plant response rating ([4]; 250 g ai/ha): 100 | Plant response rating, Blackgrass [4, 19]: 60 | Plant response rating, Blackgrass [4, 20]: 80 | Plant response rating, Blackgrass [4, 21]: 100 | Plant response rating, Morningglory [5, 19]: 0 | Plant response rating, Morningglory [5, 20]: 0 | Plant response rating, Morningglory [5, 21]: 0 | Plant response rating, Morningglory [5, 22]: 0 | Plant response rating, Oat, Wild [6, 19]: 0 | Plant response rating, Oat, Wild [6, 20]: 50 | Plant response rating, Oat, Wild [6, 22]: 60 | Plant response rating, Crabgrass, Large [7, 19]: 98 | Plant response rating, Crabgrass, Large [7, 20]: 100 | Plant response rating, Crabgrass, Large [7, 21]: 100 | Plant response rating, Crabgrass, Large [7, 22]: 100 | Plant response rating, Nightshade, E. B. [8, 23]: 0 | Plant response rating, Nightshade, E. B. ([8]; 62 g ai/ha, scale 0 to 100): 0 | Plant response rating, Nightshade, E. B. ([8]; 125 g ai/ha, scale 0 to 100): 0 | Plant response rating, Nightshade, E. B. ([8]; 250 g ai/ha, scale 0 to 100): 0 | Plant response rating, Pigweed [9, 19]: 0 | Plant response rating, Pigweed [9, 20]: 0 | Plant response rating, Pigweed [9, 21]: 70 | Plant response rating, Pigweed [9, 22]: 70 | Plant response rating, Bromegrass, Downy [10, 19]: 0 | Plant response rating, Bromegrass, Downy [10, 20]: 20 | Plant response rating, Bromegrass, Downy [10, 21]: 70 | Plant response rating, Johnsongrass [11, 20]: 80 | Plant response rating, Johnsongrass [11, 22]: 80 | Plant response rating, Sunflower [12, 23]: 0 | Plant response rating, Sunflower ([12]; 62 g ai/ha, scale 0 to 100): 0 | Plant response rating, Sunflower ([12]; 125 g ai/ha, scale 0 to 100): 0 | Plant response rating, Sunflower ([12]; 250 g ai/ha, scale 0 to 100): 0 | Plant response rating, Ragweed [13, 19]: 0 | Plant response rating, Ragweed [13, 20]: 0 | Plant response rating, Ragweed [13, 21]: 0 | Plant response rating, Ragweed [13, 22]: 0 | Plant response rating, Galium [14, 23]: 100 | Plant response rating, Galium ([14]; 62 g ai/ha, scale 0 to 100): 100 | Plant response rating, Galium ([14]; 250 g ai/ha, scale 0 to 100): 100

Cc1cc(-c2ccc(Br)cc2)nn1-c1c(O)cnn(C)c1=O [Compound 4]
Plant response rating, Barnyardgrass [1, 15]: 60 | Plant response rating, Barnyardgrass [1, 16]: 70 | Plant response rating, Barnyardgrass [1, 17]: 75 | Plant response rating, Barnyardgrass [1, 18]: 0 | Plant response rating, Rice [2, 15]: 40 | Plant response rating, Rice [2, 16]: 70 | Plant response rating, Rice [2, 17]: 80 | Plant response rating, Rice [2, 18]: 15 | Plant response rating, Ryegrass, Italian [3, 24]: 100 | Plant response rating, Ryegrass, Italian [3, 25]: 100 | Plant response rating, Ryegrass, Italian [3, 26]: 100 | Plant response rating, Ryegrass, Italian [3, 27]: 100 | Plant response rating, Ryegrass, Italian [3, 19]: 100 | Plant response rating, Ryegrass, Italian [3, 20]: 100 | Plant response rating, Ryegrass, Italian [3, 21]: 100 | Plant response rating, Ryegrass, Italian [3, 22]: 100 | Blackgrass plant response rating ([4]; 250 g ai/ha): 100 | Plant response rating, Blackgrass [4, 24]: 90 | Plant response rating, Blackgrass [4, 25]: 100 | Plant response rating, Blackgrass [4, 26]: 100 | Plant response rating, Blackgrass [4, 27]: 100 | Plant response rating, Blackgrass [4, 19]: 100 | Plant response rating, Blackgrass [4, 20]: 100 | Plant response rating, Blackgrass [4, 21]: 100 | Plant response rating, Morningglory [5, 24]: 0 | Plant response rating, Morningglory [5, 25]: 0 | Plant response rating, Morningglory [5, 26]: 0 | Plant response rating, Morningglory [5, 27]: 0 | Plant response rating, Morningglory [5, 19]: 0 | Plant response rating, Morningglory [5, 20]: 0 | Plant response rating, Morningglory [5, 21]: 0 | Plant response rating, Morningglory [5, 22]: 30 | Plant response rating, Oat, Wild [6, 24]: 98 | Plant response rating, Oat, Wild [6, 25]: 100 | Plant response rating, Oat, Wild [6, 26]: 100 | Plant response rating, Oat, Wild [6, 27]: 100 | Plant response rating, Oat, Wild [6, 19]: 65 | Plant response rating, Oat, Wild [6, 20]: 70 | Plant response rating, Oat, Wild [6, 21]: 85 | Plant response rating, Oat, Wild [6, 22]: 95 | Plant response rating, Crabgrass, Large [7, 24]: 100 | Plant response rating, Crabgrass, Large [7, 25]: 100 | Plant response rating, Crabgrass, Large [7, 26]: 100 | Plant response rating, Crabgrass, Large [7, 27]: 100 | Plant response rating, Crabgrass, Large [7, 19]: 100 | Plant response rating, Crabgrass, Large [7, 20]: 100 | Plant response rating, Crabgrass, Large [7, 21]: 100 | Plant response rating, Crabgrass, Large [7, 22]: 100 | Plant response rating, Nightshade, E. B. ([8]; 250 g ai/ha, scale 0 to 100): 80 | Plant response rating, Pigweed [9, 24]: 0 | Plant response rating, Pigweed [9, 25]: 0 | Plant response rating, Pigweed [9, 26]: 35 | Plant response rating, Pigweed [9, 27]: 50 | Plant response rating, Pigweed [9, 22]: 0 | Plant response rating, Bromegrass, Downy [10, 24]: 0 | Plant response rating, Bromegrass, Downy [10, 25]: 5 | Plant response rating, Bromegrass, Downy [10, 26]: 20 | Plant response rating, Bromegrass, Downy [10, 27]: 40 | Plant response rating, Bromegrass, Downy [10, 19]: 70 | Plant response rating, Bromegrass, Downy [10, 20]: 70 | Plant response rating, Bromegrass, Downy [10, 21]: 98 | Plant response rating, Bromegrass, Downy ([10]; Preemergence, 250 g ai/ha, scale 0 to 100 (0 no effect, 100 complete control)): 100 | Plant response rating, Johnsongrass [11, 24]: 80 | Plant response rating, Johnsongrass [11, 26]: 100 | Plant response rating, Johnsongrass [11, 19]: 0 | Plant response rating, Johnsongrass [11, 20]: 30 | Plant response rating, Johnsongrass [11, 21]: 100 | Plant response rating, Johnsongrass [11, 22]: 100 | Plant response rating, Sunflower [12, 23]: 0 | Plant response rating, Sunflower ([12]; 62 g ai/ha, scale 0 to 100): 0 | Plant response rating, Sunflower ([12]; 125 g ai/ha, scale 0 to 100): 0 | Plant response rating, Sunflower ([12]; 250 g ai/ha, scale 0 to 100): 70 | Plant response rating, Ragweed [13, 24]: 0 | Plant response rating, Ragweed [13, 25]: 0 | Plant response rating, Ragweed [13, 26]: 50 | Plant response rating, Ragweed [13, 27]: 80 | Plant response rating, Ragweed [13, 19]: 0 | Plant response rating, Ragweed [13, 20]: 0 | Plant response rating, Ragweed [13, 21]: 0 | Plant response rating, Ragweed [13, 22]: 0 | Plant response rating, Galium [14, 23]: 0 | Plant response rating, Galium ([14]; 62 g ai/ha, scale 0 to 100): 0 | Plant response rating, Galium ([14]; 125 g ai/ha, scale 0 to 100): 85 | Plant response rating, Galium ([14]; 250 g ai/ha, scale 0 to 100): 90
